The text below walks through data of ChEMBL document CHEMBL5329224, “Structure-Based Design and Evaluation of Reversible KRAS G13D Inhibitors” (ACS Med Chem Lett, 2024).

One series deals with GTPase KRas (Homo sapiens, UniProt P01116, G13D). Nature of the series: Inhibition of Biotinylated KRAS G13D mutant (unknown origin) incubated for 20 mins in presence of BODIPY-GDP by HTRF assay.
Series [1] can be described thus: Selectivity ratio of IC50 for inhibition of Biotinylated KRAS G13D mutant (unknown origin) to IC50 for inhibition of Biotinylated wild type KRAS (unknown origin).
A further series concerns HCT-116. Nature of the series: Antiproliferative activity against human HCT-116 cells assessed as cell growth inhibition incubated for 7 days by Cell Titer-Glo luminescent assay. It is filed as functional, cell-based. The following applies: HCT-116, 168 h. In general terms: In ATP-based viability assays light output follows the ATP content of the culture.
The nature of series [2]: Volume of distribution at steady state in CD-1 mouse at 1 mg/kg,iv measured upto 9 hrs by LC-MS/MS analysis. It is filed as ADME, organism-based. The following applies: in vivo.
Series [3] in a line: Half life in CD-1 mouse at 1 mg/kg,iv measured upto 9 hrs by LC-MS/MS analysis. It is filed as ADME, organism-based. The following applies: in vivo.
Series [4] is described as follows: Dissociation constant, pKa of compound. In kind it is physicochemical.

Structures are written as SMILES.

Sequence of GTPase KRas (P01116 whole entry G13D): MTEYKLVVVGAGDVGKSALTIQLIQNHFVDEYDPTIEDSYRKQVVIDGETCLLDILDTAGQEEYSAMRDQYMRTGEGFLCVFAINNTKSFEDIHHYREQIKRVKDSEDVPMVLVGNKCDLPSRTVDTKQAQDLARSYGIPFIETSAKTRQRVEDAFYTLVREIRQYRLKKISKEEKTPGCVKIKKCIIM

In the case of `Cc1cc(N)nc(-c2cc3nc(OC[C@@H]4CCCN4C)nc4c3c(c2Cl)OC[C@@H]2CN(C(=O)[C@H](C)N(C)C)CCN42)c1C(F)(F)F`, the IC50 on GTPase KRas is 8200 nM. The Ratio IC50 in series [1] amounted to 0.94.

With `Cc1cc(N)nc(-c2c(Cl)c3c4c(ncnc4c2F)N2CCN(C(=O)/C=C/c4nccc5c4CNCC5)C[C@H]2CO3)c1C(F)(F)F`, at GTPase KRas, the IC50 worked out at 2700 nM. Besides, the Ratio IC50 in series [1] worked out at 5.9.

Turning to `C=C1CN2CCC[C@@]2(COc2nc3c4c(c(Cl)c(-c5nc(N)cc(C)c5C(F)(F)F)cc4n2)OC[C@@H]2CN(C(=O)/C=C/c4nccc5c4CN(C)CC5)CCN32)C1`, the IC50 on GTPase KRas was found to be 49 nM. In series [1], the Ratio IC50 turned out to be 0.88.

Turning to `C=C1CN2CCC[C@@]2(COc2nc(N3CCN(C(=O)/C=C/c4cc(CNC)c(C)cn4)C[C@@H]3C)c3cc(Cl)c(-c4nc(N)cc(C)c4C(F)(F)F)c(F)c3n2)C1`, at GTPase KRas, the IC50 is 500 nM. For the same compound, the Ratio IC50 in series [1] stood at 9.6.

Regarding `Cc1cc(N)nc(-c2cc3nc(OC[C@@H]4CCCN4C)nc4c3c(c2Cl)OC[C@@H]2CN(C(=O)CCC3CCNC3)CCN42)c1C(F)(F)F` (mixture of isomers), the IC50 at GTPase KRas came to 2100 nM. In series [1], the Ratio IC50 was found to be 2.

As to `Cc1cc(N)nc(-c2cc3nc(OC[C@@H]4CCCN4C)nc4c3c(c2Cl)OC[C@@H]2CN(C(=O)CC3CC5(CCC5)CN3)CCN42)c1C(F)(F)F` (mixture of isomers), at GTPase KRas, the IC50 amounted to 9000 nM. The Ratio IC50 in series [1] turned out to be 1.1.

With `Cc1cc(N)nc(-c2cc3nc(OC[C@@H]4CCCN4C)nc4c3c(c2Cl)OC[C@@H]2CN(C(=O)/C=C/c3nccc5c3CNCC5)CCN42)c1C(F)(F)F`, on GTPase KRas, the IC50 came out at 180 nM. Besides, the Ratio IC50 in series [1] was 6.1.

On to `Cc1cc(N)nc(-c2cc3nc(OC[C@@H]4CCCN4C)nc4c3c(c2Cl)OC[C@@H]2CN(C(=O)C3(N)CC3)CCN42)c1C(F)(F)F`, for which, on GTPase KRas, the IC50 came to 550 nM. Further, in series [1], the Ratio IC50 is 1.8.

In the case of `Cc1cc(N)nc(-c2cc3nc(OC[C@@H]4CCCN4C)nc4c3c(c2Cl)OC[C@@H]2CN(C(=O)C3CCC5(CNC5)O3)CCN42)c1C(F)(F)F` (mixture of isomers), the IC50 on GTPase KRas is 1600 nM. The Ratio IC50 in series [1] came out at 2.5.

`Cc1cc(N)nc(-c2cc3nc(OC[C@@H]4CCCN4C)nc4c3c(c2Cl)OC[C@@H]2CN(C(=O)CCC3(N)CCOC3)CCN42)c1C(F)(F)F` (mixture of isomers): at GTPase KRas, the IC50 was determined as 1300 nM. The Ratio IC50 in series [1] was determined as 2.5.

As to `C=C1CN2CCC[C@@]2(COc2nc(N3CCN(C(=O)/C=C/c4cccc5c4CN4CCC5C4)C[C@@H]3C)c3cc(Cl)c(-c4nc(N)cc(C)c4C(F)(F)F)c(F)c3n2)C1` (stereo in doubt; form 2) [listing 1 of 2 here], the IC50 on GTPase KRas was determined as 550 nM.

In the case of `C=C1CN2CCC[C@@]2(COc2nc(N3CCN(C(=O)/C=C/c4cccc5c4CNC(C)(C)C5)C[C@@H]3C)c3cc(Cl)c(-c4nc(N)cc(C)c4C(F)(F)F)c(F)c3n2)C1`, the IC50 at GTPase KRas was 460 nM. Besides, the Ratio IC50 in series [1] amounted to 16.

As to `COC1CC(N)(C(=O)N2CCN3c4nc(OC[C@@H]5CCCN5C)nc5cc(-c6nc(N)cc(C)c6C(F)(F)F)c(Cl)c(c45)OC[C@@H]3C2)C1` (mixture of isomers), the IC50 on GTPase KRas was found to be 880 nM. Besides, the Ratio IC50 in series [1] is 1.5.

For `Cc1cc(N)nc(-c2cc3nc(OC[C@@H]4CCCN4C)nc4c3c(c2Cl)OC[C@@H]2CN(C(=O)C[C@@H]3CCNC3)CCN42)c1C(F)(F)F`, the 50% inhibitory concentration (IC50) at GTPase KRas was determined as 2600 nM. Besides, in series [1], the Ratio IC50 is 2.1.

Consider `C=C1CN2CCC[C@@]2(COc2nc(N3CCN(C(=O)/C=C/c4cccc5c4CN4CCC5C4)C[C@@H]3C)c3cc(Cl)c(-c4nc(N)cc(C)c4C(F)(F)F)c(F)c3n2)C1` (stereo in doubt; form 2) [listing 2 of 2 here], for which the Ratio IC50 in series [1] is 27.

Take `Cc1cc(N)nc(-c2cc3nc(OC[C@@H]4CCCN4C)nc4c3c(c2Cl)OC[C@@H]2CN(C(=O)CCN)CCN42)c1C(F)(F)F`: the IC50 at GTPase KRas is 2700 nM. Also, in series [1], the Ratio IC50 worked out at 2.5.

Consider `Cc1cc(N)nc(-c2cc3nc(OC[C@@H]4CCCN4C)nc4c3c(c2Cl)OC[C@@H]2CN(C(=O)C3CC(N)CCO3)CCN42)c1C(F)(F)F` (mixture of isomers), for which, on GTPase KRas, the IC50 stood at 14000 nM. Moreover, the Ratio IC50 in series [1] came to 0.41.

Regarding `Cc1cc(N)nc(-c2cc3nc(OC[C@@H]4CCCN4C)nc4c3c(c2Cl)OC[C@@H]2CN(C(=O)[C@@H]3CC[C@H]3N)CCN42)c1C(F)(F)F`, the IC50 at GTPase KRas was found to be 3000 nM. In series [1], the Ratio IC50 came out at 1.5.

Turning to `C=C1CN2CCC[C@@]2(COc2nc3c4c(c(Cl)c(-c5nc(N)cc(C)c5C(F)(F)F)c(F)c4n2)OC[C@@H]2CN(C(=O)/C=C/c4nccc5c4CNCC5)CCN32)C1`, the half-maximal inhibitory concentration (IC50) with HCT-116 turned out to be 6.1 µM; at GTPase KRas, 1.5 nM. In series [2], this compound showed a Vdss of 0.42 L/kg. The compound also came in with a t1/2 in series [3] of 3.2 h.

Regarding `C=C1CN2CCC[C@@]2(COc2nc(N3CCN(C(=O)/C=C/c4cc(C5CCN(C)CC5)c(C)cn4)C[C@@H]3C)c3cc(Cl)c(-c4nc(N)cc(C)c4C(F)(F)F)c(F)c3n2)C1`, the IC50 on GTPase KRas was 340 nM. Besides, the Ratio IC50 in series [1] turned out to be 15.

Regarding `C=C1CN2CCC[C@@]2(COc2nc(N3CCN(C(=O)/C=C/c4cc(CNC)ccn4)C[C@@H]3C)c3cc(Cl)c(-c4nc(N)cc(C)c4C(F)(F)F)c(F)c3n2)C1`, at GTPase KRas, the IC50 was found to be 530 nM. The same compound had a pKa in series [4] of 8.4. Also, in series [1], the Ratio IC50 was found to be 5.7.

For the compound `C=C1CN2CCC[C@@]2(COc2nc(N3CCN(C(=O)/C=C/c4cc(CN5CCOCC5)ccn4)C[C@@H]3C)c3cc(Cl)c(-c4nc(N)cc(C)c4C(F)(F)F)c(F)c3n2)C1`, on GTPase KRas, the IC50 turned out to be 4.1 nM. In series [4], the pKa stood at 5.4. Besides, in series [1], the Ratio IC50 is 1.2.

Take `Cc1cc(N)nc(-c2cc3nc(OC[C@@H]4CCCN4C)nc4c3c(c2Cl)OC[C@@H]2CN(C(=O)CC[C@@]3(C)CCCN3)CCN42)c1C(F)(F)F`: on GTPase KRas, the IC50 was 1900 nM. Also, in series [1], the Ratio IC50 amounted to 2.4.

For the compound `Cc1cc(N)nc(-c2cc3nc(OC[C@@H]4CCCN4C)nc4c3c(c2Cl)OC[C@@H]2CN(C(=O)C[C@H]3CCC35CNC5)CCN42)c1C(F)(F)F`, the IC50 on GTPase KRas is 3500 nM. Besides, the Ratio IC50 in series [1] amounted to 1.1.

Consider `C=C1CN2CCC[C@@]2(COc2nc(N3CCN(C(=O)/C=C/c4cc(CN(C)C)c(C)cn4)C[C@@H]3C)c3cc(Cl)c(-c4nc(N)cc(C)c4C(F)(F)F)c(F)c3n2)C1`, for which the IC50 on GTPase KRas was 520 nM. Moreover, the Ratio IC50 in series [1] stood at 9.2.

Regarding `Cc1cc(N)nc(-c2cc3nc(OC[C@@H]4CCCN4C)nc4c3c(c2Cl)OC[C@@H]2CN(C(=O)CC3CCNCC3)CCN42)c1C(F)(F)F`, at GTPase KRas, the IC50 turned out to be 4800 nM. Also, in series [1], the Ratio IC50 turned out to be 2.

Regarding `Cc1cc(N)nc(-c2cc3nc(OC[C@@H]4CCCN4C)nc4c3c(c2Cl)OC[C@@H]2CN(C(=O)C3CCNCC3)CCN42)c1C(F)(F)F`, the half-maximal inhibitory concentration (IC50) on GTPase KRas was determined as 3200 nM. In addition, in series [1], the Ratio IC50 was 2.2.

Regarding `Cc1cc(N)nc(-c2cc3nc(OC[C@@H]4CCCN4C)nc4c3c(c2Cl)OC[C@@H]2CN(C(=O)C#CC3CCNC3)CCN42)c1C(F)(F)F` (mixture of isomers), the IC50 at GTPase KRas worked out at 1600 nM. For the same compound, the Ratio IC50 in series [1] is 2.3.

Consider `Cc1cc(N)nc(-c2cc3nc(OC[C@@H]4CCCN4C)nc4c3c(c2Cl)OC[C@@H]2CN(C(=O)C3CC35CNC5)CCN42)c1C(F)(F)F` (mixture of isomers), for which the IC50 on GTPase KRas is 2400 nM. Besides, in series [1], the Ratio IC50 is 1.3.

Turning to `C=C1CN2CCC[C@@]2(COc2nc(N3CCN(C(=O)/C=C/c4cccc5c4CNCC5)C[C@@H]3C)c3cc(Cl)c(-c4nc(N)cc(C)c4C(F)(F)F)c(F)c3n2)C1`, the figures for the IC50 in the series on HCT-116 and at GTPase KRas were 2.1 µM and 690 nM, respectively. This compound also yielded a Vdss in series [2] of 0.9 L/kg. This compound displayed a t1/2 in series [3] of 7.6 h.

For `C=C1CN2CCC[C@@]2(COc2nc(N3CCN(C(=O)/C=C/c4cccc5c4CN4CCC5C4)C[C@@H]3C)c3cc(Cl)c(-c4nc(N)cc(C)c4C(F)(F)F)c(F)c3n2)C1` (stereo in doubt; form 1) [listing 1 of 2 here], the Ratio IC50 in series [1] is 29.

For the compound `C=C1CN2CCC[C@@]2(COc2nc3c4c(c(Cl)c(-c5nc(N)cc(C)c5C(F)(F)F)cc4n2)OC[C@@H]2CN(C(=O)/C=C/c4nccc5c4CNCC5)CCN32)C1`, at GTPase KRas, the IC50 amounted to 13 nM. For the same compound, the Ratio IC50 in series [1] worked out at 7.3.

`Cc1cc(N)nc(-c2cc3nc(OC[C@@H]4CCCN4C)nc4c3c(c2Cl)OC[C@@H]2CN(C(=O)CC[C@H]3CCCCN3)CCN42)c1C(F)(F)F`: on GTPase KRas, the IC50 worked out at 2000 nM. For the same compound, the Ratio IC50 in series [1] was 2.3.

`Cc1cc(N)nc(-c2cc3nc(OC[C@@H]4CCCN4C)nc4c3c(c2Cl)OC[C@@H]2CN(C(=O)CC[C@@H]3CCCCN3)CCN42)c1C(F)(F)F`: the IC50 on GTPase KRas worked out at 1700 nM. In series [1], the Ratio IC50 was determined as 2.5.

Regarding `C=C1CN2CCC[C@@]2(COc2nc(N3CCN(C(=O)/C=C/c4cccc5c4CN4CCC5C4)C[C@@H]3C)c3cc(Cl)c(-c4nc(N)cc(C)c4C(F)(F)F)c(F)c3n2)C1` (stereo in doubt; form 1) [listing 2 of 2 here], on GTPase KRas, the concentration for half-maximal inhibition (IC50) worked out at 410 nM.

As for `Cc1cc(N)nc(-c2cc3nc(OC[C@@H]4CCCN4C)nc4c3c(c2Cl)OC[C@@H]2CN(C(=O)C3CC35CCNCC5)CCN42)c1C(F)(F)F` (mixture of isomers), the IC50 at GTPase KRas came out at 2400 nM. Further, in series [1], the Ratio IC50 stood at 2.1.

For orientation: IC50 means the point on the concentration scale where inhibition reaches its midpoint. A word on the Vdss: it is the apparent volume that relates the amount in the body to the concentration in plasma or blood. Read a low Vdss as confinement near the circulation. In general, pKa refers to the pH at which an ionisable group is half protonated. Read a low pKa as a group that gives up its proton readily.
